Holding throughout (type): physicochemical
Data set [1] can be described thus: Storage stability at different relative humidities and temperatures, 6 months (XRPD). The method, then: (§1) X-ray diffraction was performed on X-Ray powder diffractometer: • Bruker D8 Advance; CuKα radiation (λ=1.5418 Å); Lynx eye detector; laboratory temperature 22-25° C.; PMMA specimen holder ring with silicon low background. Prior to analysis, the samples were gently ground by means of mortar and pestle in order to obtain a fine powder. The ground sample was adjusted into a cavity of the sample holder and the surface of the sample was smoothed by means of a cover glass. Measurement Parameters: • Scan range: 2-40 degrees 2-theta; • Scan mode: continuous; • Step size: 0.05 degrees; • Time per step: 0.5 s; • Sample spin: 30 rpm; • Sample holder: PMMA specimen holder ring with silicon low background.
Samples of Ensifentrine ethane-1,2-disulfonate form ES2 were subjected to conditions of different relative humidities at different temperatures. XRPD analysis was performed on the samples after 6 months.

Data set [2] in a line: Grinding experiments (strong grinding, solvent drop grinding; XRPD). Conditions: for XRPD analysis results: 2 minutes. As to the method:
as §1
Samples of Ensifentrine ethane-1,2-disulfonate form ES2 were subjected to strong grinding, and to solvent drop grinding in water and ethanol. Grinding was carried out on the samples alone, or in the presence of ethanol or water. In these experiments, about 20 mg of the sample is placed in a mortar and ground with a pestle for 2 minutes. The solvent, when used, as added to the crystalline material before grinding, in a volume of 10 microlitres. XRPD analysis performed on each of the samples after the grinding experiment, confirmed no change in the starting material (Table 3): […]

Data set [3] can be described thus: Thermal stability (heating, XRPD). Conditions: heating up to 100° C. for 30 minutes. The method, then:
as §1
XRPD analysis of the sample confirmed no change in the starting material (Table 4): […]

The values that follow come from patent US12692265B2, “Solid state forms of Ensifentrine and process for preparation thereof” (ASSIA CHEMICAL INDUSTRIES LTD., priority 2021, dated 2026).

Take Ensifentrine ethane-1,2-disulfonate: the XRPD analysis results in data set [1] (25° C., 60% RH) is reported as “No change”; in data set [1] (40° C., 75% RH), “No change”; in data set [2] (Solvent-drop grinding (ethanol), 10 microlitres) it was “No change”; in data set [2] (Solvent-drop grinding (water), 10 microlitres), “No change”; in data set [2] (Strong grinding, about 20 mg, mortar and pestle), “No change”. Besides, in data set [2] (each of the samples: alone, with ethanol, with water), the “XRPD analysis after the grinding experiment” value is given as “no change”. Besides, in data set [3], the “XRPD analysis after heating” value was “no change”.
